Assay results as given in ChEMBL document CHEMBL5726327, “Kinase inhibitors” (2017).

Biological target: Glycogen synthase kinase-3 alpha (Homo sapiens, UniProt P49840)
Test: Enzyme Inhibition Assay: The inhibitory activities of compounds of the invention against the GSK 3α enzyme isoform (Invitrogen), are evaluated by determining the level of activation/phosphorylation of the target peptide. The GSK3-α protein (500 ng/mL, 2.5 μL) is mixed with the test compound (2.5 μL at either 4 μg/mL, 0.4 μg/mL, 0.04 μg/mL, or 0.004 μg/mL) for 2 hr at RT. The FRET peptide (8 μM, 2.5 μL), which is a phosphorylation target for GSK3α, and ATP (40 μM, 2.5 μL) are then added to the enzyme/compound mixture and the resulting mixture incubated for 1 hr. Development reagent (protease, 5 μL) is added for 1 hr prior to detection in a fluorescence microplate reader (Varioskan® Flash, ThermoFisher Scientific).In all cases, the site-specific protease cleaves non-phosphorylated peptide only and eliminates the FRET signal. Phosphorylation levels of each reaction are calculated using the ratio of coumarin emission (donor) over fluorescein emission (acceptor), for which high ratios indicate […] phosphorylation levels.

Glycogen synthase kinase-3 alpha, sequence (P49840 whole entry, canonical isoform): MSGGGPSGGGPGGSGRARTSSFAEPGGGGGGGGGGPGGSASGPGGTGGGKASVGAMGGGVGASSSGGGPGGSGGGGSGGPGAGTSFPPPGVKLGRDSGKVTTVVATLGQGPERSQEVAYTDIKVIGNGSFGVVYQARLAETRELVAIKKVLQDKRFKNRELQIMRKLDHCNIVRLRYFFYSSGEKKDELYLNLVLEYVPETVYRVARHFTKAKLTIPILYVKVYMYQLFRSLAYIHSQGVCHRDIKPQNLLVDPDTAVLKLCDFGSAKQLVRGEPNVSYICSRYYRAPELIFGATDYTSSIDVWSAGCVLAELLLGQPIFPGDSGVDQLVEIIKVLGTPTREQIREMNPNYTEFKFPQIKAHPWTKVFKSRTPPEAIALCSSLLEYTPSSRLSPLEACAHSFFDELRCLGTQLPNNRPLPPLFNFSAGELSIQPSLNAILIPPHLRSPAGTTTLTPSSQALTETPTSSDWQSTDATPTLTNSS

| SMILES | IC50 [nM] |
| --- | --- |
| COc1cc(N=S(C)(C)=O)cc(Nc2nccc(Oc3ccc(NC(=O)Nc4cc(C(C)C)nn4-c4ccc(C)cc4)c4ccccc34)n2)c1 | 824 |
| COc1cc(Nc2nccc(Oc3ccc(NC(=O)Nc4cc(C(C)(C)C)nn4-c4ccc(C)cc4)c(Cl)c3Cl)n2)cc(S(=O)(=O)C2CC2)c1 | > 10000 |
